Data as given in the supplement of paper PMC12513837.
± gives the standard deviation of the averaged measurements.

Compound: CC(=O)N1CCc2c(c(N3CCCc4cc(-c5cnn(C)c5)c(C(F)F)cc43)nn2C2CCC(CN3CCN(c4ccc5c(c4)C(=O)N(C4CCC(=O)NC4=O)C5=O)CC3)CC2)C1 [CBPD-409]
Test: AUC of viability dose-response curve (relative to vehicle, 8 doses up to 10 µM) (fraction); higher = less sensitive (more viable); extreme values may be limits of the assay
Description: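 PRISM multiplexed pooled barcoded cell line viability screen at the Broad Institute, 887 cancer cell lines treated with CBPD-409 (p300/CBP PROTAC degrader) at 8 concentrations in threefold dilution, top dose 10 µM. The read-out is the area under the dose-response curve of relative viability versus vehicle (n=3). AUC < 0.3 is called strongly sensitive and AUC > 0.8 resistant.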

For HEYA8_OVARY, the “AUC of viability dose-response curve” value was 1.
In the case of HGC27_STOMACH, the “AUC of viability dose-response curve” value is reported as 0.316.
With HH_HAEMATOPOIETIC_AND_LYMPHOID_TISSUE the “AUC of viability dose-response curve” value was 1.
In the case of HKA1_SKIN, the “AUC of viability dose-response curve” value is reported as 1.
In the case of HKGZCC_BILIARY_TRACT, the “AUC of viability dose-response curve” value is reported as 1.
With HL60_HAEMATOPOIETIC_AND_LYMPHOID_TISSUE the “AUC of viability dose-response curve” value was 0.516.
With HLF_LIVER the “AUC of viability dose-response curve” value was 1.
HMC18_BREAST was tested, and the “AUC of viability dose-response curve” value was 0.932.
With HOS_BONE the “AUC of viability dose-response curve” value was 0.931 ± 0.027.
In the case of HOTHC_THYROID, the “AUC of viability dose-response curve” value is reported as 0.845.
In the case of HPAC_PANCREAS, the “AUC of viability dose-response curve” value is reported as 1.
In the case of HPAFII_PANCREAS, the “AUC of viability dose-response curve” value is reported as 0.919.
In the case of “HPBALL_HAEMATOPOIETIC_AND_LYMPHOID_TISSUE”, the “AUC of viability dose-response curve” value is reported as 0.878.
With HS294T_SKIN the “AUC of viability dose-response curve” value was 0.929.
With “HS611T_HAEMATOPOIETIC_AND_LYMPHOID_TISSUE” the “AUC of viability dose-response curve” value was 0.742.
HS683_CENTRAL_NERVOUS_SYSTEM was tested, and the “AUC of viability dose-response curve” value was 1.
In the case of HS729_SOFT_TISSUE, the “AUC of viability dose-response curve” value is reported as 0.807 ± 0.27.
For HS766T_PANCREAS, the “AUC of viability dose-response curve” value was 0.73.
With HS852T_SKIN the “AUC of viability dose-response curve” value was 1.
With HS939T_SKIN the “AUC of viability dose-response curve” value was 0.815.
For HS944T_SKIN, the “AUC of viability dose-response curve” value was 1.
In the case of HSC1_SKIN, the “AUC of viability dose-response curve” value is reported as 1.
With HSC2_UPPER_AERODIGESTIVE_TRACT the “AUC of viability dose-response curve” value was 0.502.
For HSC3_UPPER_AERODIGESTIVE_TRACT, the “AUC of viability dose-response curve” value was 0.936.
In the case of HSC5_SKIN, the “AUC of viability dose-response curve” value is reported as 0.644.
HSKTC_OVARY was tested, and the “AUC of viability dose-response curve” value was 1.
For HT3_CERVIX, the “AUC of viability dose-response curve” value was 0.711.
For HT29_LARGE_INTESTINE, the “AUC of viability dose-response curve” value was 0.633.
HT55_LARGE_INTESTINE was tested, and the “AUC of viability dose-response curve” value was 0.509.
With HT115_LARGE_INTESTINE the “AUC of viability dose-response curve” value was 1.
HT144_SKIN was tested, and the “AUC of viability dose-response curve” value was 1.
HT1080_SOFT_TISSUE was tested, and the “AUC of viability dose-response curve” value was 1.
For HT1197_URINARY_TRACT, the “AUC of viability dose-response curve” value was 1.
For HT1376_URINARY_TRACT, the “AUC of viability dose-response curve” value was 1.
HTMMT_ENDOMETRIUM was tested, and the “AUC of viability dose-response curve” value was 0.65.
In the case of HT_HAEMATOPOIETIC_AND_LYMPHOID_TISSUE, the “AUC of viability dose-response curve” value is reported as 0.672.
HUCCT1_BILIARY_TRACT was tested, and the “AUC of viability dose-response curve” value was 0.983.
With HUG1N_STOMACH the “AUC of viability dose-response curve” value was 1.
In the case of HUH1_LIVER, the “AUC of viability dose-response curve” value is reported as 0.882.
HUH6_LIVER was tested, and the “AUC of viability dose-response curve” value was 1.
With HUH7_LIVER the “AUC of viability dose-response curve” value was 0.796.
HUO9_BONE was tested, and the “AUC of viability dose-response curve” value was 0.679.
With HUPT3_PANCREAS the “AUC of viability dose-response curve” value was 0.687.
In the case of HUPT4_PANCREAS, the “AUC of viability dose-response curve” value is reported as 0.784.
For “HUT78_HAEMATOPOIETIC_AND_LYMPHOID_TISSUE”, the “AUC of viability dose-response curve” value was 1.
IALM_LUNG was tested, and the “AUC of viability dose-response curve” value was 0.311.
With ICC4_BILIARY_TRACT the “AUC of viability dose-response curve” value was 0.706.
With ICC8_BILIARY_TRACT the “AUC of viability dose-response curve” value was 1.
For ICC9_BILIARY_TRACT, the “AUC of viability dose-response curve” value was 1.
For ICC10_BILIARY_TRACT, the “AUC of viability dose-response curve” value was 0.827.
In the case of ICC12_BILIARY_TRACT, the “AUC of viability dose-response curve” value is reported as 1.
In the case of ICC15_BILIARY_TRACT, the “AUC of viability dose-response curve” value is reported as 0.265.
With ICC137_BILIARY_TRACT the “AUC of viability dose-response curve” value was 0.501.
IGR1_SKIN was tested, and the “AUC of viability dose-response curve” value was 0.626.
In the case of IGR37_SKIN, the “AUC of viability dose-response curve” value is reported as 0.229.
IGR39_SKIN was tested, and the “AUC of viability dose-response curve” value was 0.847.
IGROV1_OVARY was tested, and the “AUC of viability dose-response curve” value was 0.956.
For IHH4_THYROID, the “AUC of viability dose-response curve” value was 0.762.
In the case of IM95_STOMACH, the “AUC of viability dose-response curve” value is reported as 0.57.
With IPC298_SKIN the “AUC of viability dose-response curve” value was 0.808.
ISHIKAWAHERAKLIO02ER_ENDOMETRIUM was tested, and the “AUC of viability dose-response curve” value was 1.
For ISTMES1_PLEURA, the “AUC of viability dose-response curve” value was 0.481.
In the case of ISTMES2_PLEURA, the “AUC of viability dose-response curve” value is reported as 0.579.
For J82_URINARY_TRACT, the “AUC of viability dose-response curve” value was 0.921.
In the case of JAR_PLACENTA, the “AUC of viability dose-response curve” value is reported as 0.238.
JEG3_PLACENTA was tested, and the “AUC of viability dose-response curve” value was 0.307.
For “JEKO1_HAEMATOPOIETIC_AND_LYMPHOID_TISSUE”, the “AUC of viability dose-response curve” value was 1.
In the case of JHH1_LIVER, the “AUC of viability dose-response curve” value is reported as 0.282.
For JHH4_LIVER, the “AUC of viability dose-response curve” value was 0.997.
With JHH5_LIVER the “AUC of viability dose-response curve” value was 0.614.
JHH7_LIVER was tested, and the “AUC of viability dose-response curve” value was 0.291.
JHOC5_OVARY was tested, and the “AUC of viability dose-response curve” value was 1.
With JHOM1_OVARY the “AUC of viability dose-response curve” value was 0.99.
For JHOS2_OVARY, the “AUC of viability dose-response curve” value was 0.472.
With JHUEM2_ENDOMETRIUM the “AUC of viability dose-response curve” value was 0.965.
With JHUEM7_ENDOMETRIUM the “AUC of viability dose-response curve” value was 1.
With JIMT1_BREAST the “AUC of viability dose-response curve” value was 1.
With JJN3_HAEMATOPOIETIC_AND_LYMPHOID_TISSUE the “AUC of viability dose-response curve” value was 0.896.
JL1_PLEURA was tested, and the “AUC of viability dose-response curve” value was 0.532.
With JM1_HAEMATOPOIETIC_AND_LYMPHOID_TISSUE the “AUC of viability dose-response curve” value was 0.4.
JMSU1_URINARY_TRACT was tested, and the “AUC of viability dose-response curve” value was 1.
JMURTK2_SOFT_TISSUE was tested, and the “AUC of viability dose-response curve” value was 0.399.
In the case of JOPACA1_PANCREAS, the “AUC of viability dose-response curve” value is reported as 1.
With JR_SOFT_TISSUE the “AUC of viability dose-response curve” value was 0.34.
“JURKAT_HAEMATOPOIETIC_AND_LYMPHOID_TISSUE” was tested, and the “AUC of viability dose-response curve” value was 0.66.
With “JURLMK1_HAEMATOPOIETIC_AND_LYMPHOID_TISSUE” the “AUC of viability dose-response curve” value was 0.361.
With JVM3_HAEMATOPOIETIC_AND_LYMPHOID_TISSUE the “AUC of viability dose-response curve” value was 1.
With K029AX_SKIN the “AUC of viability dose-response curve” value was 0.793.
In the case of K562_HAEMATOPOIETIC_AND_LYMPHOID_TISSUE, the “AUC of viability dose-response curve” value is reported as 1.
For KALS1_CENTRAL_NERVOUS_SYSTEM, the “AUC of viability dose-response curve” value was 1.
With “KARPAS299_HAEMATOPOIETIC_AND_LYMPHOID_TISSUE” the “AUC of viability dose-response curve” value was 1.
In the case of “KARPAS422_HAEMATOPOIETIC_AND_LYMPHOID_TISSUE”, the “AUC of viability dose-response curve” value is reported as 0.752.
With “KARPAS620_HAEMATOPOIETIC_AND_LYMPHOID_TISSUE” the “AUC of viability dose-response curve” value was 0.449.
